Experimental data taken from US20030235873A1, “Process for detecting enzyme activity in an immunoassay” (priority 2000, published 2003).
pIC50, pKd: −log10 of the molar value. *1 amine or outer side, *2 acyl side, *3 side chain or, on linkers, in order; H or OH if unused. Where a SMILES comes first, the peptide text is derived from it. Bridges are numbered along the chain shown (N, C = ends). Where no end group is shown, it is not given here. [ ]: non-standard residue; d: D form. Adda = CO[C@@H](Cc1ccccc1)[C@@H](C)/C=C(C)/C=C/[C@H](N[*:1])[C@H](C)C(=O)[*:2]; dAsp(3S-Me) = C[C@H](C(=O)[*:3])[C@@H](N[*:1])C(=O)[*:2]; d(γGlu) = O=C(O)[C@@H](CCC(=O)[*:2])N[*:1]; pY = N[C@@H](Cc1ccc(OP(=O)(O)O)cc1)C(=O)O; pT = C[C@@H](OP(=O)(O)O)[C@H](N)C(=O)O; NMeDha = C=C(NC)C(=O)O

Legend:
[1] = tested on: ac(K9)-p(S10)-specific antibody from New England Biolabs (#9711); assay: Binding of TAMRA-labelled histone H3 peptides to ac(K9)-p(S10)-specific antibody; settings: FIG. 15 and 16
Excerpt: (§1) The histone deacetylase assay uses fluorescently-labelled peptides (TAMRA dye as a label) derived from histone H3 sequence. In the assay two different polyclonal antibodies are used which bind specifically to acetylated lysine redidues (ac(K) at positions ac(K9) or […]). Acetylation of a single lysine results in a relative small change of the molecular structure of the aminoacid side chain. The resulting change in the binding affinity to acetyl-specific antibodies is in general difficult to detect in a homogeneous binding assay. According to the invention, therefore an additional modification (phosphorylation of serine at position (S10)) was included within the H3-peptide sequence to enhance the affinity of the peptides to the applied antibodies. From the results of three independing binding experiments (FIGS. 15-17) it is evident that dual-modified peptide conjugates confer a higher affinity for the applied antibodies when compared to mono-modified peptide conjugates. This characteristic is of great value to measure the different acetylation states of lysine residues using acetyl-specific antibodies. In principle, the described binding assay can be applied both for the detection of acetyltransferase or deacetylase activity, in particular histone acetyltransferase/deacetylase.

[2] = tested on: antibody NEB #9251 (polyclonal anti-active JNK antibody); assay: Fluorescence correlation spectroscopy competition of the NEB #9251 antibody-P1°*-TAMRA complex with non-fluorescent peptides; type: binding; settings: antibody 1:20 diluted, TAMRA-labelled peptide P1*° 5 nM
[3] = tested on: p(S10)-ac(K14)-specific antibody from Upstate Biotech (#07-081); assay: Binding of TAMRA-labelled histone H3 peptides to p(S10)-ac(K14)-specific antibody; settings: FIG. 17
Excerpt: as §1

[4] = target: T1, PP2A phosphatase (Homo sapiens, UniProt P67775); assay: Direct phosphatase assay: inhibition of PP2A-dependent dephosphorylation of TAMRA-P1°* peptide (fluorescence polarization read-out); type: biochemical
T1 construct: purchased Upstate Biotech 14-111 (lot no. 20574)
T1 sequence (P30153 2-589): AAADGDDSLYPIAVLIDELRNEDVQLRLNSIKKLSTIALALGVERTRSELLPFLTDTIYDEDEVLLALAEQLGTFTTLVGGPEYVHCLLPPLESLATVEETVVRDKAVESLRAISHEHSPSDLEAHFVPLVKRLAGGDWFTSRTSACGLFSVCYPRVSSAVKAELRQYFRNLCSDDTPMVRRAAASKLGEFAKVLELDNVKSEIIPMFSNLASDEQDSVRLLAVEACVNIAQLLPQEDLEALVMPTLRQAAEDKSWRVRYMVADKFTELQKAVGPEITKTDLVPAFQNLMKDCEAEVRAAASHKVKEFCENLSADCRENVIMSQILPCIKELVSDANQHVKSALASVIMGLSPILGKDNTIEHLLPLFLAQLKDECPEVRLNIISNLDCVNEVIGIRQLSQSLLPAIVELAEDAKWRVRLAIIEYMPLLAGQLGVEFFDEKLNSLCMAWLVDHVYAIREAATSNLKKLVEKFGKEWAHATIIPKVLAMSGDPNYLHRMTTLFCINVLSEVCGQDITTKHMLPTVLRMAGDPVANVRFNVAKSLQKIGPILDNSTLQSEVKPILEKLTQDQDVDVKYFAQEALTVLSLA
T1 sequence (P67775 whole entry): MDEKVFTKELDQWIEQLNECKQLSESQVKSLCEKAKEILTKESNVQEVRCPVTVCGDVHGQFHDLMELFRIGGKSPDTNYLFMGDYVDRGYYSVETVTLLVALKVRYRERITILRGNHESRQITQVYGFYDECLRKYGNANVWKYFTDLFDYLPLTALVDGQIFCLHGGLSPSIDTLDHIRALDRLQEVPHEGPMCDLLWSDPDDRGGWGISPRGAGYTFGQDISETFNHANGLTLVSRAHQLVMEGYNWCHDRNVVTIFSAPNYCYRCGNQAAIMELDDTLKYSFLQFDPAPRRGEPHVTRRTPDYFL

[5] = target: polyclonal anti active JNK antibody #9251 (New England Biolabs NEB #9251); assay: Fluorescence polarization binding of TAMRA-labelled JNK active-site peptides to anti-active JNK antibody; settings: peptide at 5 nM
Procedure: This polyclonal antibody detects all three isoforms of the SAPK1/JNK proteins only when they are activated by dual phosphorylation at threonine183/tyrosinel85. Binding of poly-clonal anti active JNK antibody #9251 (concentration: 0.02 mg/ml, equiv. 130 nM) to TAMRA-labelled P1*° peptide (at 5 nM) was measured at different antibody concentrations by fluorescence polarization. As a control, no binding of the antibody to the monophosphorylated TAMRA-P1° peptide (at 5 nM) is detected.
The results of this experiment are illustrated in FIG. 4. […] The polarization values dramatically increase when using the double-phosphorylated TAMRA-P1*° peptide in contrast to mono-phosphorylated labelled TAMRA-P1° peptide (sequences see below).

## TAMRA-A-R-ac(K9)-S-T-T-G-K-A [peptide #12]
[1]
  Binding of the ac(K9)-p(S10)-specific antibody to the peptide: only low binding

## H-Lys-Phe-Met-Met-Thr-Pro-pTyr-Val-Val-Thr-Arg-NH2 (chain 1 H-KFMMTP; chain 2 [pY]VVTR-NH2; not fully specified (C-terminus); also: chains 1 and 2 are one peptide continuing through pTyr) [P1°, monophosphorylated control peptide]
[2]
  Competition with TAMRA-labelled peptide P1*° for binding to the antibody: did note compete effectively

## H-Lys-Phe-Met-Met-pThr-Pro-Tyr-Val-Val-Thr-Arg-NH2 (chain 1 H-KFMM; chain 2 [pT]PYVVTR-NH2; not fully specified (C-terminus); also: chains 1 and 2 are one peptide continuing through pThr) [P1*, monophosphorylated control peptide]
[2]
  Competition with TAMRA-labelled peptide P1*° for binding to the antibody: did note compete effectively

## TAMRA-A-R-ac(K9)-p(S10)-T-T-G-K-A-P [peptide #10]
[1]
  Binding of the ac(K9)-p(S10)-specific antibody to the peptide: binding
[3]
  Binding of the p(S10)-ac(K14)-specific antibody to the peptide: only low binding

## C=C1C(=O)N[C@H](C)C(=O)N[C@@H](CC(C)C)C(=O)N[C@@H](C(=O)O)[C@H](C)C(=O)N[C@@H](CCCNC(=N)N)C(=O)N[C@@H](/C=C/C(C)=C/[C@H](C)[C@H](Cc2ccccc2)OC)[C@H](C)C(=O)N[C@@H](C(=O)O)CCC(=O)N1C [microcystin-LR] (R[Adda][d(γGlu)][NMeDha][dA]L[dAsp(3S-Me)]-OH; lactam N-7)
[4]
  Inhibition of PP2A: full inhibition

## 5-TAMRA-AEEA-Lys-Phe-Met-Met-pThr-Pro-pTyr-Val-Val-Thr-Arg-NH2 (chain 1 KFMM; chain 2 YVVTR; not fully specified; 5-TAMRA-AEEA, pThr-Pro, phospho, C-terminal amide; printed: Lys-Phe-Met-Met-; printed: Tyr-Val-Val-Thr-Arg-) [P1*°-TAMRA]
[5]; different antibody concentrations, read-out: Affinity of polyclonal anti-active-JNK antibody for peptide (KD)
  pKd: 8.59

## C=C1[C@@H](O)[C@@H]2O[C@]3(CC[C@H](/C=C/[C@@H](C)[C@@H]4CC(C)=C[C@@]5(O[C@H](C[C@@](C)(O)C(=O)O)CC[C@H]5O)O4)O3)CC[C@H]2O[C@@H]1[C@@H](O)C[C@H](C)[C@H]1O[C@@]2(CCCCO2)CC[C@H]1C [ocadaic acid]
[4]; PP2A 0.003 units, P1°*-TAMRA peptide 10 nM, 30° C., read-out: IC50 (half-maximal inhibitory concentration, PP2A-dependent dephosphorylation of TAMRA-P1°* peptide)
  pIC50: 9.52

## TAMRA-A-R-K-p(S10)-T-T-G-ac(K14)-A-P [peptide #11]
[1]
  Binding of the ac(K9)-p(S10)-specific antibody to the peptide: only low binding
[3]
  Binding of the p(S10)-ac(K14)-specific antibody to the peptide: binding

## H-KFMM[pT]P[pY]VVTR-NH2 [P1*°]
[2]
  Competition with TAMRA-labelled peptide P1*° for binding to the antibody: able to compete effectively
[2]; read-out: IC50 (competition of antibody binding to TAMRA-labelled peptide P1*°)
  pIC50: 8.30

## TAMRA-A-R-K-p(S10)-T-T-G-K-A [peptide #13]
[1]
  Binding of the ac(K9)-p(S10)-specific antibody to the peptide: only low binding

## 5-TAMRA-AEEA-Lys-Phe-Met-Met-Thr-Pro-pTyr-Val-Val-Thr-Arg-NH2 (chain 1 KFMMTP; chain 2 YVVTR; not fully specified; 5-TAMRA-AEEA, phospho residue, C-terminal amide; printed: Lys-Phe-Met-Met-Thr-Pro-; printed: Tyr-Val-Val-Thr-Arg-) [TAMRA-P1°]
[5]; control
  Binding of the antibody to the peptide: no binding
